According to patent US10294202B2, “Pyrrolidinones as herbicides” (FMC Corporation, priority 2013, dated 2019):

Assays:
barnyardgrass [1] = assay: Test A pre-/postemergence herbicide test; type: in vivo, Echinochloa crus-galli
Procedure, shortened: (§1)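 Seeds in loam–sand blend received preemergence directed soil spray; separately, plants 2–10 cm at one- to two-leaf stage received postemergence spray, both with test chemicals in non-phytotoxic solvent with surfactant. After ~10 days in greenhouse, injury rated visually against untreated controls, 0 (no effect) to 100 (complete control).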

kochia = assay: Test A pre-/postemergence herbicide test; type: in vivo, Kochia scoparia; conditions: for Plant response rating, Kochia: 0 to 100 scale
Procedure, shortened: as §1

ragweed = assay: Test A pre-/postemergence herbicide test; type: in vivo, Ambrosia elatior; conditions: for Plant response rating, Ragweed: 0 to 100 scale
Procedure, shortened: as §1

ryegrass, Italian = assay: Test A pre-/postemergence herbicide test; type: in vivo, Lolium multiflorum; conditions: for Plant response rating, Ryegrass, Italian: 0 to 100 scale
Procedure, shortened: as §1

giant foxtail = assay: Test A pre-/postemergence herbicide test; type: in vivo, Setaria faberii; conditions: for Plant response rating, Foxtail, Giant: 0 to 100 scale
Procedure, shortened: as §1

pigweed = assay: Test A pre-/postemergence herbicide test; type: in vivo, Amaranthus retroflexus; conditions: for Plant response rating, Pigweed: 0 to 100 scale
Procedure, shortened: as §1

wheat = assay: Test A pre-/postemergence herbicide test; type: in vivo, Triticum aestivum; conditions: Postemergence; for Plant response rating, Wheat: 125 g ai/ha, 0 to 100 scale, 0 no effect, 100 complete control; for Wheat plant response rating (0 to 100 scale, 0 is no effect, 100 is complete control): 500 g ai/ha
Procedure, shortened: as §1

corn = assay: Test A pre-/postemergence herbicide test; type: in vivo, Zea mays; conditions: Postemergence; for Plant response rating, Corn: 125 g ai/ha, 0 to 100 scale, 0 no effect, 100 complete control; for Corn plant response rating (0 to 100 scale, 0 is no effect, 100 is complete control): 500 g ai/ha
Procedure, shortened: as §1

blackgrass = assay: Test A postemergence herbicide test; type: in vivo, Alopecurus myosuroides; conditions: for Plant response rating, Blackgrass: 125 g ai/ha, 0 to 100 scale, 0 no effect, 100 complete control; for Blackgrass plant response rating (0 to 100 scale, 0 is no effect, 100 is complete control): 500 g ai/ha
Procedure, shortened: (§2)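 Injury was rated visually about 10 days after treatment on a 0 (no effect) to 100 (complete control) scale, compared with untreated plants. Test chemicals were sprayed postemergence onto greenhouse plants 2–10 cm high at one to two leaves, grown in a loam–sand blend.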

galium = assay: Test A postemergence herbicide test; type: in vivo, Galium aparine; conditions: for Plant response rating, Galium: 125 g ai/ha, 0 to 100 scale, 0 no effect, 100 complete control; for Galium plant response rating (0 to 100 scale, 0 is no effect, 100 is complete control): 500 g ai/ha
Procedure, shortened: as §2

rice = assay: Test B flooded paddy test; type: in vivo, Oryza sativa; conditions: 500 g ai/ha, Flood; scale of 0 to 100 where 0 is no effect and 100 is complete control
Procedure, shortened: (§3)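 In-water application to pots flooded 3 cm deep, plants at 2-leaf stage. Held in greenhouse 13–15 days at constant flood depth. Scored 0–100 by eye against controls.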

sedge, umbrella = assay: Test B flooded paddy test; type: in vivo, Cyperus difformis; conditions: 500 g ai/ha, Flood; scale of 0 to 100 where 0 is no effect and 100 is complete control
Procedure, shortened: as §3

ducksalad = assay: Test B flooded paddy test; type: in vivo, Heteranthera limosa; conditions: 500 g ai/ha, Flood; scale of 0 to 100 where 0 is no effect and 100 is complete control
Procedure, shortened: as §3

barnyardgrass [2] = assay: Test B flooded paddy test; type: in vivo, Echinochloa crus-galli; conditions: 500 g ai/ha, Flood; scale of 0 to 100 where 0 is no effect and 100 is complete control
Procedure, shortened: as §3

[3] = 125 g ai/ha, visual rating, 0 to 100 scale, 0 no effect, 100 complete control, approximately 10 days, preemergence
[4] = Postemergence, 125 g ai/ha, 0 to 100 scale, 0 no effect, 100 complete control
[5] = preemergence, 500 g ai/ha, 0 to 100 scale (0 no effect, 100 complete control)
[6] = 125 g ai/ha, visual rating, 0 no effect, 100 complete control, approximately 10 days, preemergence
[7] = Postemergence, 125 g ai/ha, 0 no effect, 100 complete control

Cc1cc(C2CNC(=O)C2C(=O)Nc2ccc(F)cc2F)ccc1F (racemic) [Compound 140]
50: Plant response rating, Foxtail, Giant (giant foxtail; [6]) | Foxtail, Giant plant response rating (0 to 100 scale, 0 is no effect, 100 is complete control) (giant foxtail; Postemergence, 500 g ai/ha)
100: Plant response rating, Ducksalad (ducksalad)
80: Plant response rating, Barnyardgrass (barnyardgrass [1]; [3]) | Barnyardgrass plant response rating (0 to 100 scale, 0 is no effect, 100 is complete control) (barnyardgrass [1]; Postemergence, 500 g ai/ha)
30: Galium plant response rating (0 to 100 scale, 0 is no effect, 100 is complete control) (galium)
0: Plant response rating, Kochia (kochia; [6]) | Plant response rating, Kochia (kochia; [7]) | Kochia plant response rating (0 to 100 scale, 0 is no effect, 100 is complete control) (kochia; Postemergence, 500 g ai/ha) | Plant response rating, Kochia (kochia; preemergence, 500 g ai/ha) | Plant response rating, Ragweed (ragweed; [6]) | Plant response rating, Ragweed (ragweed; [7]) | Ragweed plant response rating (0 to 100 scale, 0 is no effect, 100 is complete control) (ragweed; Postemergence, 500 g ai/ha) | Plant response rating, Ragweed (ragweed; preemergence, 500 g ai/ha) | Plant response rating, Ryegrass, Italian (ryegrass, Italian; [6]) | Plant response rating, Ryegrass, Italian (ryegrass, Italian; [7]) | Ryegrass, Italian plant response rating (0 to 100 scale, 0 is no effect, 100 is complete control) (ryegrass, Italian; Postemergence, 500 g ai/ha) | Plant response rating, Ryegrass, Italian (ryegrass, Italian; preemergence, 500 g ai/ha) | Plant response rating, Foxtail, Giant (giant foxtail; [7]) | Plant response rating, Pigweed (pigweed; [6]) | Plant response rating, Pigweed (pigweed; [7]) | Pigweed plant response rating (0 to 100 scale, 0 is no effect, 100 is complete control) (pigweed; Postemergence, 500 g ai/ha) | Plant response rating, Pigweed (pigweed; preemergence, 500 g ai/ha) | Plant response rating, Wheat (wheat) | Wheat plant response rating (0 to 100 scale, 0 is no effect, 100 is complete control) (wheat) | Plant response rating, Corn (corn) | Corn plant response rating (0 to 100 scale, 0 is no effect, 100 is complete control) (corn) | Plant response rating, Blackgrass (blackgrass) | Plant response rating, Galium (galium) | Plant response rating, Rice (rice) | Plant response rating, Sedge, Umbrella (sedge, umbrella)
90: Plant response rating, Barnyardgrass (barnyardgrass [1]; [5]) | Plant response rating, Foxtail, Giant (giant foxtail; preemergence, 500 g ai/ha)
70: Plant response rating, Barnyardgrass (barnyardgrass [1]; [4]) | Plant response rating, Barnyardgrass (barnyardgrass [2])
20: Blackgrass plant response rating (0 to 100 scale, 0 is no effect, 100 is complete control) (blackgrass)

Cc1cc(C2CNC(=O)C2C(=O)Nc2cccc(F)c2F)ccc1F (racemic) [Compound 141]
80: Plant response rating, Barnyardgrass (barnyardgrass [1]; [4])
40: Ragweed plant response rating (0 to 100 scale, 0 is no effect, 100 is complete control) (ragweed; Postemergence, 500 g ai/ha) | Ryegrass, Italian plant response rating (0 to 100 scale, 0 is no effect, 100 is complete control) (ryegrass, Italian; Postemergence, 500 g ai/ha)
30: Wheat plant response rating (0 to 100 scale, 0 is no effect, 100 is complete control) (wheat)
90: Plant response rating, Barnyardgrass (barnyardgrass [1]; [3]) | Barnyardgrass plant response rating (0 to 100 scale, 0 is no effect, 100 is complete control) (barnyardgrass [1]; Postemergence, 500 g ai/ha) | Plant response rating, Barnyardgrass (barnyardgrass [1]; [5]) | Plant response rating, Foxtail, Giant (giant foxtail; preemergence, 500 g ai/ha)
50: Plant response rating, Foxtail, Giant (giant foxtail; [6]) | Foxtail, Giant plant response rating (0 to 100 scale, 0 is no effect, 100 is complete control) (giant foxtail; Postemergence, 500 g ai/ha) | Corn plant response rating (0 to 100 scale, 0 is no effect, 100 is complete control) (corn) | Blackgrass plant response rating (0 to 100 scale, 0 is no effect, 100 is complete control) (blackgrass) | Galium plant response rating (0 to 100 scale, 0 is no effect, 100 is complete control) (galium) | Plant response rating, Barnyardgrass (barnyardgrass [2])
0: Plant response rating, Kochia (kochia; [6]) | Plant response rating, Kochia (kochia; [7]) | Plant response rating, Ragweed (ragweed; [6]) | Plant response rating, Ragweed (ragweed; [7]) | Plant response rating, Ragweed (ragweed; preemergence, 500 g ai/ha) | Plant response rating, Ryegrass, Italian (ryegrass, Italian; [6]) | Plant response rating, Ryegrass, Italian (ryegrass, Italian; [7]) | Plant response rating, Foxtail, Giant (giant foxtail; [7]) | Plant response rating, Pigweed (pigweed; [6]) | Plant response rating, Pigweed (pigweed; [7]) | Pigweed plant response rating (0 to 100 scale, 0 is no effect, 100 is complete control) (pigweed; Postemergence, 500 g ai/ha) | Plant response rating, Pigweed (pigweed; preemergence, 500 g ai/ha) | Plant response rating, Wheat (wheat) | Plant response rating, Corn (corn) | Plant response rating, Blackgrass (blackgrass) | Plant response rating, Rice (rice) | Plant response rating, Sedge, Umbrella (sedge, umbrella)
100: Plant response rating, Ducksalad (ducksalad)
20: Kochia plant response rating (0 to 100 scale, 0 is no effect, 100 is complete control) (kochia; Postemergence, 500 g ai/ha) | Plant response rating, Kochia (kochia; preemergence, 500 g ai/ha) | Plant response rating, Ryegrass, Italian (ryegrass, Italian; preemergence, 500 g ai/ha) | Plant response rating, Galium (galium)

Cc1cc(C2CNC(=O)C2C(=O)Nc2ccc(F)c(F)c2F)ccc1F (racemic) [Compound 142]
90: Plant response rating, Barnyardgrass (barnyardgrass [1]; [3]) | Barnyardgrass plant response rating (0 to 100 scale, 0 is no effect, 100 is complete control) (barnyardgrass [1]; Postemergence, 500 g ai/ha) | Plant response rating, Barnyardgrass (barnyardgrass [1]; [5]) | Plant response rating, Foxtail, Giant (giant foxtail; preemergence, 500 g ai/ha)
30: Blackgrass plant response rating (0 to 100 scale, 0 is no effect, 100 is complete control) (blackgrass)
20: Ryegrass, Italian plant response rating (0 to 100 scale, 0 is no effect, 100 is complete control) (ryegrass, Italian; Postemergence, 500 g ai/ha) | Wheat plant response rating (0 to 100 scale, 0 is no effect, 100 is complete control) (wheat)
70: Plant response rating, Foxtail, Giant (giant foxtail; [6])
100: Plant response rating, Ducksalad (ducksalad)
80: Plant response rating, Barnyardgrass (barnyardgrass [1]; [4])
75: Plant response rating, Barnyardgrass (barnyardgrass [2])
50: Foxtail, Giant plant response rating (0 to 100 scale, 0 is no effect, 100 is complete control) (giant foxtail; Postemergence, 500 g ai/ha)
0: Plant response rating, Kochia (kochia; [6]) | Plant response rating, Kochia (kochia; [7]) | Kochia plant response rating (0 to 100 scale, 0 is no effect, 100 is complete control) (kochia; Postemergence, 500 g ai/ha) | Plant response rating, Kochia (kochia; preemergence, 500 g ai/ha) | Plant response rating, Ragweed (ragweed; [6]) | Plant response rating, Ragweed (ragweed; [7]) | Ragweed plant response rating (0 to 100 scale, 0 is no effect, 100 is complete control) (ragweed; Postemergence, 500 g ai/ha) | Plant response rating, Ragweed (ragweed; preemergence, 500 g ai/ha) | Plant response rating, Ryegrass, Italian (ryegrass, Italian; [6]) | Plant response rating, Ryegrass, Italian (ryegrass, Italian; [7]) | Plant response rating, Ryegrass, Italian (ryegrass, Italian; preemergence, 500 g ai/ha) | Plant response rating, Foxtail, Giant (giant foxtail; [7]) | Plant response rating, Pigweed (pigweed; [6]) | Plant response rating, Pigweed (pigweed; [7]) | Pigweed plant response rating (0 to 100 scale, 0 is no effect, 100 is complete control) (pigweed; Postemergence, 500 g ai/ha) | Plant response rating, Pigweed (pigweed; preemergence, 500 g ai/ha) | Plant response rating, Wheat (wheat) | Plant response rating, Corn (corn) | Corn plant response rating (0 to 100 scale, 0 is no effect, 100 is complete control) (corn) | Plant response rating, Blackgrass (blackgrass) | Plant response rating, Galium (galium) | Plant response rating, Rice (rice) | Plant response rating, Sedge, Umbrella (sedge, umbrella)
40: Galium plant response rating (0 to 100 scale, 0 is no effect, 100 is complete control) (galium)
